“And” between values parts separate entries of the source, which are not always exact repeats. Equal entries are not always repeated.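 Grown in 96-well plates, cells were treated for 48 hours with each compound at five concentrations. Insufficient inhibition: endpoint recorded as highest concentration tested. Here, GI50 denotes the concentration required for 50% inhibition of growth. TGI: concentration producing complete growth inhibition.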
How the values were obtained:
Assay in all cases: DTP human tumour cell line panel, 48 h
SNB-19 CNS = test system: SNB-19 CNS
HCT-15 colon = test system: HCT-15 colon
OVCAR-5 ovarian = test system: OVCAR-5 ovarian
A498 renal = test system: A498 renal
SN12C renal = test system: SN12C renal
BT-549 breast = test system: BT-549 breast
HL-60(TB) leukemia = test system: HL-60(TB) leukemia
TK-10 renal = test system: TK-10 renal
HOP-62 NSCLC = test system: HOP-62 NSCLC
UO-31 renal = test system: UO-31 renal

Row | SMILES | GI50 (SNB-19 CNS) | TGI (SNB-19 CNS) | GI50 (HCT-15 colon) [µM] | TGI (HCT-15 colon) [µM] | GI50 (OVCAR-5 ovarian) [nM] | TGI (OVCAR-5 ovarian) [µM] | GI50 (A498 renal) [µM] | TGI (A498 renal) [µM] | GI50 (SN12C renal) [µM] | TGI (SN12C renal) [µM] | GI50 (BT-549 breast) [nM] | TGI (BT-549 breast) [µM] | GI50 (HL-60(TB) leukemia) | TGI (HL-60(TB) leukemia) [µM] | GI50 (TK-10 renal) [µM] | TGI (TK-10 renal) [µM] | GI50 (HOP-62 NSCLC) | TGI (HOP-62 NSCLC) | GI50 (UO-31 renal) [µM] | TGI (UO-31 renal) [µM]
1 | OCC(O)C(O)C(O)C(O)c1nnc2c(-c3ccccc3)nc3ccccc3n12 (stereo not drawn) | > 100 µM | > 100 µM | 53.1 | > 100 | > 100000 | > 100 | 38.2 | > 100 | > 100 | > 100 | 56400 | > 100 | > 100 µM | > 100 | 29.2 | > 100 | > 100 µM | > 100 µM | > 100 | > 100
2 | C=CC(=O)Nc1cc2c(Nc3ccc(F)c(Cl)c3)ncnc2cc1C#CC(C)(C)N1CCN(C)CC1 | 3.58 µM | 5.05 µM | 1.68 | 5.11 | 1040 | 6.17 | 1.21 | 3.94 | 0.572 | 2.51 | 1600 | 3.47 | 1.88 µM | 5.08 | 0.0522 | 2.03 | 3.53 µM | 5.9 µM | 0.244 | 4.4
3 | CC(=O)OCC1OC(n2c3c(cc(C#N)c2=S)CCCC3)C(OC(C)=O)C(OC(C)=O)C1OC(C)=O (stereo not drawn) | > 100 µM and 21.5 µM | > 100 µM and 54.4 µM |  | > 100 |  | > 100 |  | > 100 |  | > 100 |  | > 100 | 48.9 µM and > 100 µM | > 100 |  | > 100 | 83.3 µM and 19.9 µM | > 100 µM and 51.5 µM |  | > 100
4 | C[As](C)SC1OCC(O)C(O)C1O (stereo not drawn) | 4.22 µM | 27.4 µM | 0.107 | 0.611 | 208 | 0.71 | 0.316 | 1.22 | 0.226 | 0.868 | 363 | 1.5 | 0.0278 µM | 0.189 | < 0.0258 | 0.19 | 2.15 µM | 9.52 µM | 0.109 | 0.53
5 | CC1(C)C2CCC13C(=O)C1OC3(C2)C2C(=O)c3c(ccc4c3ccc3ccccc34)C(=O)C12 (stereo not drawn) | > 43.5 µM | > 100 µM | > 53.5 | > 100 | > 100000 | > 100 | > 100 | > 100 | > 73.3 | > 100 | > 80300 | > 100 |  | 11.1 | > 87.5 | > 100 | > 100 µM | > 100 µM | > 100 | > 100
6 | COc1ccc(-c2c(N)noc2-c2cc(OC)c3c(c2)OCCO3)cc1 | 0.0277 µM | > 100 µM | < 0.01 | > 100 | 54.2 | > 100 | < 0.01 | 0.303 | 0.0438 | > 100 | 28.5 | 1.35 | 0.0102 µM | 0.0434 | 0.562 | > 56.6 | < 0.0123 µM | > 54.8 µM | < 0.024 | 56.9
7 | CC1OC(OC2C(O)C(O)C(O)C(O)C2O)C(N)CC1N=C(N)C(=O)O (stereo not drawn) |  | > 100 µM |  | > 100 |  | > 100 |  | > 100 |  | > 100 |  | > 100 |  | > 100 |  | > 100 |  | > 100 µM |  | > 100
8 | O=NNc1ccc(S(=O)(=O)c2ccc3ccccc3c2)cn1 |  | > 100 µM |  | > 100 |  | > 100 |  | > 100 |  | > 100 |  | > 100 |  | > 100 |  | > 100 |  | > 100 µM |  | 58.4
9 | COCC(C(=O)OC1C/C=C/C=C/C(=O)OC(C(C)C(O)C(C)CCC(OC(=O)C(C)N(C)C)C(C)C(OC(C)=O)C(C)/C=C/N(C)C=O)C/C=C/C(OC)CC(C)C/C=C(\C)C(OC)CCC(C)C(O)C1C)N(C)C (stereo not drawn) | < 0.0001 µM | 0.111 µM | < 0.0001 | 0.00194 | < 0.1 | 0.162 | < 0.0001 | < 0.0001 | < 0.0001 | 0.105 | 6.77 | 0.0915 | < 0.0001 µM | < 0.0001 | 0.0158 | 0.0877 | < 0.0001 µM | 0.0013 µM | 0.00104 | 0.169
10 | CC(C)OP(=O)(O)c1ncc(-c2ccc(C(F)(F)F)cc2)c(NC2CCCCCC2)n1 | > 100 µM | > 100 µM | > 100 | > 100 | > 100000 | > 100 | > 100 | > 100 | > 100 | > 100 | > 100000 | > 100 | 38.2 µM | > 100 | > 100 | > 100 | 81.2 µM | > 100 µM | > 100 | > 100
11 | C=C1C[C@@H]2O[C@H]3[C@H]4[C@@H](CC[C@@](C)(OC(=O)CCC)[C@H]42)[C@@H](C)C(=O)O[C@@]3(C)CC[C@H]1OO | 53.8 µM | > 100 µM | 16.2 | 29.7 | > 100000 | > 100 | > 100 | > 100 | 13.7 | 26.5 | 36000 | > 100 | 12.2 µM | 28.1 | 26.1 | 49.4 | 25.7 µM | 55.3 µM | 17.9 | 33.7
12 | COc1cc(/C=C2\SC(N3CCCCC3)=NC2=O)ccc1OCCCCCCOc1ccc(/C=C2\SC(N3CCCCC3)=NC2=O)cc1OC | 9.58 µM | 39.7 µM | 15.2 | 53.1 | 22900 | 59.1 | 12.8 | 46.2 | 19 | > 100 | 4290 | 22.8 | 14.6 µM | 84.4 | 11.5 | 27.9 | 4.05 µM | 16.3 µM | 13.2 | 39.3
13 | CNC(=O)OCc1nc(SC)n(C)c1COC(=O)NC |  | 743 µM |  | 410 |  | 451 |  | 386 |  | 309 |  | 300 |  | 262 |  | 702 |  | 92.2 µM |  | 444
14 | O=c1[nH]cnc2n[nH]nc12 |  | > 100 µM |  | > 100 |  | > 100 |  | > 100 |  | > 100 | 2650 | > 100 |  | > 56.4 |  | > 100 |  | > 100 µM |  | > 100

— PubChem BioAssay (NCI)
